“And” between values parts separate entries of the source, which are not always exact repeats. Equal values may be shown once. Read-outs that look alike come from different tables or passages of the source.
What was measured:
HIV-1 SG3.1 [1] = details: ref Bártolo et al., 2021, cited from earlier work; for IC50: Alves et al., 2021c
HIV-2 03PTHCC19 [2] = tested on: HIV-2 03PTHCC19; parameters: method as in Bártolo et al., 2021; details: ref Bártolo et al., 2021, cited from earlier work
P. berghei hepatic stage [3] = tested on: P. berghei hepatic stage; parameters: method as in Bártolo et al., 2021; Alves et al., 2021c; details: hepatic infection; ref Bártolo et al., 2021; Alves et al., 2021c; cited from earlier work
TZM-bl cells = tested on: TZM-bl cells; parameters: method as in Bártolo et al., 2021; details: lead molecule, ref Bártolo et al., 2021; cited from earlier work
[4] = tested on: P. falciparum strain NF54; parameters: method as in Bártolo et al., 2021; Alves et al., 2021c; details: erythrocytic infection; ref Bártolo et al., 2021; Alves et al., 2021c; cited from earlier work
HIV protease = tested on: HIV protease; parameters: method as in Bártolo et al., 2021; details: ref Bártolo et al., 2021; cited from earlier work
[5] = Cellular viability assay (alamarBlue) in TZM-bl cells; format: cell-based; details: human, 50% cytotoxic concentration
Procedure: Before the antiviral activity screening, all spirocyclopentene-β-lactams were assayed for their in vitro cytotoxic activity (CC50) in TZM-bl cells (Table 4).
TZM-bl cells (AIDS Research and Reference Reagent Program, National Institutes of Health, United States) were cultured in complete growth medium consisting of Dulbecco’s Minimal Essential Medium (DMEM) supplemented with 10% fetal bovine serum (FBS), 100 U/ml of penicillin–streptomycin (Gibco/Invitrogen, United States), 1 mM of sodium pyruvate (Gibco/Invitrogen, United States), 2 mM of L-glutamine (Gibco/Invitrogen, United States), and 1 mM of non-essential amino acids (Gibco/Invitrogen, United States). Cell cultures were maintained at 37°C in 5% CO2.
The in vitro cytotoxicity of test compounds was evaluated in TZM-bl cells using alamarBlue cell viability reagent (Life Technologies, United States), according to the instructions of the manufacturer. The cells were cultured in the presence and absence of serial-fold dilutions of the test compounds. Each dilution of each compound was performed in triplicate wells. Medium controls (only growth medium), cell controls (cells without test compound), and cytotoxicity controls (a compound that kills cells) were employed in each assay.

HIV-1 SG3.1 [6] = test: microbe, parasite or virus in culture; details: for IC50 / IC90: 48 h; for IC90: read-out: IC90 HIV-1; for inhibition at 25 µg/mL: read-out: MPI (%) 25 μg/mL
Excerpt: (§1) The HIV-1 SG3.1 is a reference subtype B strain that uses the CXCR4 coreceptor. It was obtained by transfection of HEK293T cells with pSG3.1 plasmid using jetPRIME transfection reagent (Polyplus-transfection SA, Illkirch, France), according to the instructions of the manufacturer.
(§2) Briefly, TZM-bl cells were infected with 200 TCID50 of HIV-1 or HIV-2 in the presence of serial-fold dilutions of the compounds in the growth medium, supplemented with diethylaminoethyl-dextran (DEAE-dextran). After 48 h of infection, luciferase expression was quantified with Pierce Firefly Luc One-Step Glow Assay Kit (ThermoFisher Scientific, Rockford, United States), according to the instructions of the manufacturer. For each compound dilution, the assay was set up in triplicate wells. Virus controls, cell controls, and inhibitors controls (drugs with a known action against each virus) were employed.

HIV-2 03PTHCC19 [7] = test: microbe, parasite or virus in culture; details: Human immunodeficiency virus 2, TZM-bl; for IC50 / IC90: 48 h; for IC50: read-out: IC50 HIV-2; for IC90: read-out: IC90 HIV-2; for inhibition at 25 µg/mL: read-out: MPI (%) 25 μg/mL
Excerpt: as §1, §2

P. berghei hepatic stage [8] = test: In vitro hepatic infection of Huh7 cells by luciferase-expressing P. berghei; format: cell-based; details: Plasmodium berghei; for inhibition at 1 µM: Huh-7, read-out: percentage of inhibition of hepatic infection; for IC50: Huh-7, hepatic stage, Huh7 cells, 48 h after infection
Procedure: The inhibitory activity of test compounds on in vitro hepatic infection by P. berghei was determined by comparing the parasite load in compound- and solvent-treated P. berghei-infected Huh7 cells. Infection load was assessed by measurement of luminescence intensity in Huh7 cells infected, with a firefly luciferase-expressing P. berghei line, as previously described ([Ploemen et al., 2009]; [António et al., 2017]). Briefly, Huh7 cells were seeded in 96-well plates (1.0 × 10^4 cells per well) the day before drug treatment and infection. The medium was replaced by another medium containing the appropriate concentration of each compound approximately 1 h prior to infection with sporozoites freshly obtained through disruption of salivary glands of infected female Anopheles stephensi mosquitoes. Sporozoite addition was followed by centrifugation at 1,800 g for 5 min. Parasite infection load was measured 48 h after infection by a bioluminescence assay (Biotium). Cell confluence, a surrogate measure of compound toxicity to Huh7 cells, was assessed by fluorescence measurements using the alamarBlue assay, according to the manufacturer’s instructions. […] Specifically, non-linear regression analysis was employed to fit the normalized results of the dose-response curves, and IC50 values were determined using GraphPad Prism 8.0 (GraphPad Software, La Jolla, California, United States).

[9] = tested on: P. falciparum strain NF54; test: Blood stage antiplasmodial activity, SYBR green I flow cytometry; format: cell-based; details: Plasmodium falciparum, NF54, 48 h
Procedure: Ring-stage synchronized cultures of P. falciparum strain NF54 at 2.5% hematocrit and at approximately 1% parasitemia were incubated with test compounds or dimethyl sulfoxide (DMSO, vehicle control) in 96-well plates for 48 h at 37°C in a 5% CO2 and 5% O2 atmosphere. Stock solutions of chloroquine (positive control) and compounds 9i, 12a, and 14a were prepared in DMSO. Working solutions were prepared from the stock solutions in complete malaria culture medium (CMCM), which consists of RPMI 1640 supplemented with 25 mM HEPES, 2.4 mM L-glutamine, 50 μg/ml gentamicin, 0.5% w/v Albumax, 11 mM glucose, 1.47 mM hypoxanthine, and 37.3 mM NaHCO3. For each measurement, 5 μl of the culture (approximately 800,000 cells) were stained with the DNA-specific dye SYBR green I. After 20 min of incubation in the dark, the stained sample was analyzed by flow cytometry. Approximately 100,000 events were analyzed in each flow cytometry measurement. Two independent experiments were performed, and all samples were analyzed in triplicate.

[10] = Human immunodeficiency virus 1, TZM-bl, read-out: IC50 HIV-1, TZM-bl cells, 48 h
[11] = Human immunodeficiency virus 1, TZM-bl
[12] = read-out: IC50 HIV-1, TZM-bl cells

SMILES	IC50 (HIV-1 SG3.1 [1])	IC50 (P. berghei hepatic stage [3]) [nM]	IC50 [4] [nM]	CC50 [5] [nM]	IC50 (HIV-1 SG3.1 [6]; [10]) [nM]	IC90 (HIV-1 SG3.1 [6]; [11]) [nM]	inhibition at 25 µg/mL (HIV-1 SG3.1 [6]; [11]) [%]	IC50 (HIV-2 03PTHCC19 [7]) [nM]	IC90 (HIV-2 03PTHCC19 [7]) [nM]	inhibition at 25 µg/mL (HIV-2 03PTHCC19 [7]) [%]	inhibition at 1 µM (P. berghei hepatic stage [8]) [%]	IC50 (P. berghei hepatic stage [8]) [nM]	IC50 [9] [nM]	melting point [°C]	IC50 (HIV-1 SG3.1 [6]; [12]) [nM]	other results
COC(=O)C1C(C(=O)OCc2ccccc2)=CCC12C(=O)N1C(C(=O)OC(c3ccccc3)c3ccccc3)C(C)(C)SC12 (centres unmarked) [BSS-722A]	650 nM	< 5000														IC50 (HIV-2 03PTHCC19 [2]): 510 nM
CC1(C)SC2N(C(=O)C23CC=C(C(=O)OCc2ccccc2)C3C(=O)c2ccccc2)C1C(=O)OC(c1ccccc1)c1ccccc1 (centres unmarked) [BSS-730A]	14 nM	550 ± 140	430 ± 40													CC50 (TZM-bl cells): 76800 nM; MPI (%) 25 μg/mL (HIV-1 SG3.1 [1]; HIV-1, 25 μg/mL, lead molecule): 99%; Therapeutic index (CC50/IC50) (HIV-1 SG3.1 [1]; HIV-1, lead molecule): 5488.57; IC90 (HIV-1 SG3.1 [1]; lead molecule): 25 nM; MPI (%) 25 μg/mL (HIV-2 03PTHCC19 [2]; HIV-2, 25 μg/mL, lead molecule): 99%; Therapeutic index (CC50/IC50) (HIV-2 03PTHCC19 [2]; HIV-2, lead molecule): 9605.00; IC90 (HIV-2 03PTHCC19 [2]; lead molecule): 64 nM; IC50 (HIV-2 03PTHCC19 [2]): 8 nM; HIV antiprotease activity (in words) (HIV protease): no HIV antiprotease activity
COC(=O)C1=CCC2(C(=O)N3C(C(=O)OC(c4ccccc4)c4ccccc4)C(C)(C)SC32)C1C(=O)Oc1ccccc1 (centres unmarked) [Compound 4]		2290	1260													
CCOC(=O)C1=CCC2(C(=O)N3C(C(=O)OC(c4ccccc4)c4ccccc4)C(C)(C)SC32)C1C(=O)c1ccccc1 (centres unmarked) [Compound 5]	305 nM and < 300 nM	1920	844													
COc1ccc(COC(=O)C2=CCC3(C(=O)N4C(C(=O)OC(c5ccccc5)c5ccccc5)C(C)(C)SC43)C2C(=O)c2ccccc2)cc1 (centres unmarked) [Compound 9i, (1’R,2’R)-Benzhydryl spiro[(2-benzoyl-3-(4-methoxybenzyloxycarbonyl)cyclopent-3-ene)-1’,6-penicillanate]]				35800	15	20	100	111	350	100	< 50	285 ± 44	336 ± 67	65.3 to 67.4		
CC1(C)SC2N(C(=O)C23CC=C(C(=O)OCc2ccccc2)C3C(=O)c2ccc(F)cc2)C1C(=O)OC(c1ccccc1)c1ccccc1 (stereo not drawn) [Compound 12a, (1′R,2′R)-benzhydryl spiro[(2-(4-fluorobenzoyl)-3-benzyloxycarbonylcyclopent-3-ene)-1′,6-penicillanate]]				58100	19	54	93	11	55	100	< 50	924 ± 27	560 ± 126	64.5 to 66.5		
COc1ccc(COC(=O)C2=CCC3(C(=O)N4C(C(=O)OC(c5ccccc5)c5ccccc5)C(C)(C)SC43)C2C(=O)c2ccc(F)cc2)cc1 (stereo not drawn) [Compound 14a, (1′R,2′R)-benzhydryl spiro[(2-(4-fluorobenzoyl)-3-(4-methoxybenzyloxycarbonyl)cyclopent-3-ene)-1′,6-penicillanate]]				75100	< 20	48	100	13	51	100	< 50	750 ± 107	292 ± 62	72.9 to 74.9	12	
CC1(C)SC2N(C(=O)C23CC=C(C(=O)OCC=Cc2ccccc2)C3C(=O)c2ccc(F)cc2)C1C(=O)OC(c1ccccc1)c1ccccc1 (centres unmarked) [Compound 14c, (1’R,2’R)-Benzhydryl spiro[(2-(4-fluorobenzoyl)-3-cinnamyloxycarbonylcyclopent-3-ene)-1’,6-penicillanate]]				77600	< 20	18	100	39	103	100		1000 to 10000		76.5 to 78.5	15	
COc1ccc(COC(=O)C2=CCC3(C(=O)N4C(C(=O)OC(c5ccccc5)c5ccccc5)C(C)(C)SC43)C2C(=O)c2ccc(Cl)cc2)cc1 (centres unmarked) [Compound 14d, (1’R,2’R)-Benzhydryl spiro[(2-(4-chlorobenzoyl)-3-(4-methoxybenzyloxycarbonyl)cyclopent-3-ene)-1’,6-penicillanate]]				134000	< 20	19	100	65	123	100		2000 ± 458		76.1 to 78.1	15	
COc1ccc(COC(=O)C2=CCC3(C(=O)N4C(C(=O)OC(c5ccccc5)c5ccccc5)C(C)(C)SC43)C2C(=O)c2ccc(Br)cc2)cc1 (centres unmarked) [Compound 14g, (1’R,2’R)-Benzhydryl spiro[(2-(4-bromobenzoyl)-3-(4-methoxybenzyloxycarbonyl)cyclopent-3-ene)-1’,6-penicillanate]]				101000	30	99	100	87	137	100		2590 ± 219		82.6 to 84.6		

From paper PMC9585939, “Unveiling a family of spiro-β-lactams with anti-HIV and antiplasmodial activity via phosphine-catalyzed [3+2] annulation of 6-alkylidene-penicillanates and allenoates” (Frontiers in Chemistry, 2022)
